Values joined by “and” are separate entries in the source; they are usually repeats but may differ in a detail not shown here. Equal entries are not always repeated. Inconclusive results and toxic doses are left out.
System: BDF1 mice, P388 leukemia ip, median survival T/C
Assay: NCI In Vivo Anticancer Drug Screen. Data for tumor model P388 Leukemia (intraperitoneal) in B6D2F1 (BDF1) mice
Conditions: endpoint: median survival time, higher = longer survival
Procedure, shortened: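 Steps: implant the tumour, treat one group with compound and another with vehicle, record survival, then divide treated by control.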

[1] = dose: 50.0 mg/kg/injection, schedule: Q01DX009 (ip), vehicle: Klucel (hydroxypropylcellulose) (HPC)
[2] = dose: 100.0 mg/kg/injection, schedule: Q01DX009 (ip), vehicle: Klucel (hydroxypropylcellulose) (HPC)
[3] = dose: 200.0 mg/kg/injection, schedule: Q01DX009 (ip), vehicle: Klucel (hydroxypropylcellulose) (HPC)
[4] = dose: 100.0 mg/kg/injection, schedule: Q04DX003 (ip), vehicle: saline with Tween-80
[5] = dose: 200.0 mg/kg/injection, schedule: Q04DX003 (ip), vehicle: saline with Tween-80
[6] = dose: 400.0 mg/kg/injection, schedule: Q04DX003 (ip), vehicle: saline with Tween-80

Q: What does the source list for `CC[C@H]1CN2CCc3cc(OC)c(OC)cc3[C@@H]2C[C@@H]1C[C@H]1NCCc2cc(OC)c(OC)cc21`?
A: T/C (dose: 2.0 mg/kg/injection, schedule: Q01DX005 (ip), vehicle: saline): 150 % of control; T/C (dose: 2.0 mg/kg/injection, schedule: Q01DX009 (ip), vehicle: saline): 150 % of control; T/C (dose: 3.0 mg/kg/injection, schedule: Q01DX009 (oral), vehicle: saline): 90 % of control; T/C (dose: 3.5 mg/kg/injection, schedule: Q01DX010 (ip), vehicle: saline): 154 % of control and 160 % of control; T/C (dose: 4.0 mg/kg/injection, schedule: Q01DX005 (ip), vehicle: saline): 175 % of control; T/C (dose: 4.0 mg/kg/injection, schedule: Q01DX009 (ip), vehicle: saline): 220 % of control; T/C (dose: 4.0 mg/kg/injection, schedule: Q04DX003 (ip), vehicle: saline): 103 % of control; T/C (dose: 4.0 mg/kg/injection, schedule: Q## X003 (ip), vehicle: saline): 115 % of control; T/C (dose: 6.0 mg/kg/injection, schedule: Q01DX009 (oral), vehicle: saline): 86 % of control; T/C (dose: 7.0 mg/kg/injection, schedule: Q01DX010 (ip), vehicle: saline): 222 % of control; T/C (dose: 7.78 mg/kg/injection, schedule: Q04DX003 (ip), vehicle: saline): 160 % of control; T/C (dose: 8.0 mg/kg/injection, schedule: Q01DX005 (ip), vehicle: saline): 90 % of control; T/C (dose: 8.0 mg/kg/injection, schedule: Q04DX003 (ip), vehicle: saline): 163 % of control; T/C (dose: 8.0 mg/kg/injection, schedule: Q## X002 (ip), vehicle: saline): 115 % of control; T/C (dose: 8.0 mg/kg/injection, schedule: Q## X003 (ip), vehicle: saline): 150 % of control; T/C (dose: 13.0 mg/kg/injection, schedule: Q04DX003 (ip), vehicle: saline): 151 % of control and 158 % of control and 192 % of control; T/C (dose: 16.0 mg/kg/injection, schedule: Q04DX003 (ip), vehicle: saline): 232 % of control; T/C (dose: 16.0 mg/kg/injection, schedule: Q## X002 (ip), vehicle: saline): 165 % of control; T/C (dose: 16.0 mg/kg/injection, schedule: Q## X003 (ip), vehicle: saline): 185 % of control; T/C (dose: 16.0 mg/kg/injection, schedule: Q## X008 (ip), vehicle: saline): 160 % of control; T/C (dose: 16.0 mg/kg/injection, schedule: Q## X016 (ip), vehicle: saline): 165 % of control; T/C (dose: 16.0 mg/kg/injection, schedule: Q## X024 (ip), vehicle: saline): 215 % of control; T/C (dose: 18.0 mg/kg/injection, schedule: Q04DX003 (ip), vehicle: saline): 185 % of control; T/C (dose: 21.6 mg/kg/injection, schedule: Q04DX003 (ip), vehicle: saline): 225 % of control and 235 % of control and 239 % of control; T/C (dose: 32.0 mg/kg/injection, schedule: Q01DX001 (ip), vehicle: saline): 150 % of control; T/C (dose: 32.0 mg/kg/injection, schedule: Q## X002 (ip), vehicle: saline): 210 % of control; T/C (dose: 32.0 mg/kg/injection, schedule: Q## X003 (ip), vehicle: saline): 90 % of control; T/C (dose: 32.0 mg/kg/injection, schedule: Q## X016 (ip), vehicle: saline): 150 % of control

Q: With `O=C(O)COc1ccccc1OCC(=O)O` as the compound, how does the T/C [1] read?
A: Its T/C is 109 % of control.

Q: What about the T/C [2] of the same compound?
A: The T/C was 100 % of control.

Q: What about the T/C [3] of the same compound?
A: The T/C was 100 % of control.

Q: Which T/C [4] does the source give for `c1ccc(C2OC2(c2ccccc2)c2ccccc2)cc1` (stereo unspecified) here?
A: Its T/C is 95 % of control.

Q: And the T/C [5]?
A: The T/C was 104 % of control.

Q: What about the T/C [6] of the same compound?
A: Its T/C is 95 % of control.

Q: What does the source list for `CCCCNC(C)(C)C(SS)c1ccc(Cl)cc1` (stereo unspecified)?
A: T/C [1]: 100 % of control; T/C [2]: 115 % of control; T/C (dose: 100.0 mg/kg/injection, schedule: Q04DX003 (ip), vehicle: Klucel (hydroxypropylcellulose) (HPC)): 95 % of control; T/C [3]: 105 % of control; T/C (dose: 200.0 mg/kg/injection, schedule: Q04DX003 (ip), vehicle: Klucel (hydroxypropylcellulose) (HPC)): 100 % of control

Q: `O=c1[nH]c2ccc(I)cc2c(=O)o1` was tested. Which T/C [4] did it give?
A: Its T/C is 109 % of control.

Q: What about the T/C [5] of the same compound?
A: Its T/C is 104 % of control.

Q: And the T/C [6]?
A: Its T/C is 109 % of control.

Q: How did the T/C (dose: 100.0 mg/kg/injection, schedule: Q01DX009 (sc), vehicle: olive oil, sesame oil, peanut oil) turn out when `Nc1ccc2c(c1)OCO2` was run?
A: The T/C was 104 % of control.

Q: And the T/C (dose: 100.0 mg/kg/injection, schedule: Q04DX003 (sc), vehicle: olive oil, sesame oil, peanut oil)?
A: The T/C was 91 % of control.

Q: What about the T/C (dose: 200.0 mg/kg/injection, schedule: Q04DX003 (sc), vehicle: olive oil, sesame oil, peanut oil) of the same compound?
A: Its T/C is 95 % of control.

Q: What about the T/C (dose: 400.0 mg/kg/injection, schedule: Q04DX003 (sc), vehicle: olive oil, sesame oil, peanut oil) of the same compound?
A: The T/C was 116 % of control.

Source: PubChem BioAssay AID328 (DTP/NCI, 2004)
